Measured values taken from patent publication US8168384B2, “Non-thiopurine methyltransferase related effects in 6-mercaptopurine therapy” (Guy's and St. Thomas' NHS Foundation Trust, priority 2007, dated 2012).

How the values were obtained:
[1] = Cohort of patients starting azathioprine therapy: clinical response, side-effects and association with XDH, MOCOS and AOX SNP genotype; settings: cohort of 168 patients starting azathioprine therapy
[2] = remaining non-/partial responder patients

difference in TGN levels between wild-type and heterozygous for the AOX SNP [2]: no significant difference
Structure (SMILES): Cn1cnc([N+](=O)[O-])c1Sc1ncnc2nc[nH]c12 [azathioprine, 6-(1-methyl-4-nitro-5-imidazolylthio) purine]
partial responders [1]: 7 patients | patients deemed to have no response to azathioprine [1]: 35 patients
